Test results: US11149021B2, “N-(azaaryl)cyclolactam-1-carboxamide derivative, preparation method therefor, and use thereof” (Abbisko Therapeutics Co., Ltd., priority 2017, dated 2021)
pIC50: −log10 of the molar value. Where two headings read alike, the source gives them in different places.

Columns and labels:
CSF-1R = biological target: T1, CSF-1R (Homo sapiens, UniProt P07333); assay: CSF-1R in vitro biochemical kinase study (ADP-Glo assay)
T1 construct: 3.95 nM of CSF-1R, 500 μM of ATP

[1] = tested on: M-NFS-60 mouse myeloid leukemia lymphocytes; assay: CSF-1R cell proliferation study (Cell Titer Glo); format: cell-based; details: Lymphocyte, 72 h;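 further: M-CSF-driven proliferation, viable cells quantified as ATP by luminescence, compounds tested as 3-fold serial dilutions, values from four-parameter curve fits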
Description: Functional effects of compounds on cell proliferation were evaluated by using Cell Titer Glo (CTG) study in the present invention. […] Since ATP is an index for viable cell metabolism, CTG (Promega, #G7573) reagent is a homogeneous detection method for detecting the number of viable cells in the culture by quantifying ATP. Therefore, compound-mediated inhibition for cell proliferation/survival was evaluated by quantifying ATP content in cells, and the specific experimental process was as follows:
3. 10 μL of culture medium containing M-CSF with 10-fold of the final concentration was then added to each well;
4. dosage effect was evaluated by testing the 3-fold serial dilutions of the compound;
5. after the cells were incubated for 3 days at 37° C. and 5% CO2, the inhibition on cell survival was quantified after 50 μL of CTG was added and the luminescence assay was performed;
6. the compound concentration leading to half maximal inhibitory (IC50) and the compound concentration leading to absolute half maximal inhibitory (Absolute IC50) was measured by a plate reader (M1000, Tecan) and a four-parameter curve fit in Graphpad Prism 7.

[2] = tested on: MV-4-11 human acute monocytic leukemia cells; assay: CSF-1R-related cell proliferation experiment, FLT3 (Cell Titer Glo); format: cell-based; details: MV4-11, 72 h, read-out: Cytological experiment FLT3 IC50 (nM)
Description: (§4) Functional effects of compounds on the proliferation of several cell lines were evaluated by Cell Titer Glo (CTG) studies in the present invention, and effects of the compounds on the proliferation of different cells were evaluated to determine the selectivity of the compounds. […] No. CBP60115) were cultured in an incubator under conditions of RPM11640 (Gibco, cat. […] No. CBP60522) were cultured in an incubator under conditions of IMDM (Invitrogen, cat. […] Since ATP is an index for viable cell metabolism, CTG (Promega, #G7573) reagent is a homogeneous detection method for detecting the number of viable cells in the culture by quantifying ATP. Therefore, compound-mediated inhibition for cell proliferation/survival was evaluated by quantifying ATP content in cells, and the specific experimental process was as follows.

[3] = tested on: M-07e human cytomegalic leukemia cells; assay: CSF-1R-related cell proliferation experiment, KIT (Cell Titer Glo); format: cell-based; details: 72 h, read-out: Cytological experiment KIT IC50 (nM)
Description: as §4

[4] = tested on: NCI-H1703 human non-small cell lung squamous carcinoma cells; assay: CSF-1R-related cell proliferation experiment, PDGFRA (Cell Titer Glo); format: cell-based; details: NCI-H1703, 72 h, read-out: Cytological experiment PDGERA IC50 (nM)
Description: as §4

PDGFRA = PDGFRA (Homo sapiens, UniProt P16234); assay: PDGFRA in vitro biochemical kinase study (Caliper EZ Reader); details: * = average of multiple tests; read-out: Enzymatic experiment PDGFRA IC50
Description: (§1) 8. the compound IC50 value was measured by using a plate reader (Tecan, M1000) and a four-parameter curve was generated in Graphpad Prism. The enzymatic activities of compounds in the specific embodiments are shown in Table 1. • B. KIT/PDGFRA in vitro biochemical kinase study • 1. Preparation of 1-fold kinase buffer and stop solution • 1.1. 1-fold kinase buffer: 50 mM HEPES, pH 7.5, 0.0015% Brij-35. • 1.2 stop solution: 100 mM HEPES, pH 7.5, 0.015% Brij-35, 0.2% Coating Reagent #3, 50 mM EDTA • 2 Preparation of compound solution • 2.1 Dilution of compound solution • 1) The final concentration of the compound solution was 40 μM, and the concentration of the prepared stock solution was 50 times of the final concentration, i.e., 2 mM. • 2) 80 μL of 100% DMSO was added to the second well of a 96-well plate, and then 20 μL of 10 mM compound solution was added to obtain 2 mM compound solution. 60 μL of 100% DMSO was added to other wells. 20 μL solution was taken from the second well and added to the third well, which was diluted by 4 times. This serial 4-time dilution was conducted in sequence for the total of 10 concentration. • 2.2 5-fold compound solution transferred to a reaction plate • 1) 10 μL solution was taken from each well of the above 96-well plate and added to another 96-well plate, and 90 µl of kinase buffer was added in each well of new plate. • 2) 5 μL solution was taken from the above 96-well plate and added to a 384-well reaction plate. • 2.3 Kinase reaction • 1) KIT/PDGFRA kinase was added to the 1-fold kinase buffer solution to obtain a 2.5-fold kinase solution. • 2) FAM-labeled polypeptide and ATP were added to the 1-fold kinase buffer solution to obtain a 2.5-fold substrate solution. • 3) 10 μL of 2.5-fold kinase solution was added to the 384-well reaction plate, which already contained 5 μL of 5-fold compound in 10% DMSO. […] Percent inhibition=(max-conversion)/(max-min)×100
(§2) 3) The IC50 value was fit with XLFit excel add-in version 5.4.0,8: Fitting formula: Y=Bottom+(Top-Bottom)/(1+(IC50/X)^HillSlope).
(§3) CSF-1R cell proliferation study

KIT = KIT (Homo sapiens, UniProt P10721); assay: KIT in vitro biochemical kinase study (Caliper EZ Reader); details: * = average of multiple tests; read-out: Enzymatic experiment KIT IC50
Description: as §1, §2, §3

[5] = read-out: Cytological experiment CS1-1R Absolute IC50 (nM)
[6] = read-out: Cytological experiment CSF-1R IC50 (nM)

T1 sequence (P07333 20-972): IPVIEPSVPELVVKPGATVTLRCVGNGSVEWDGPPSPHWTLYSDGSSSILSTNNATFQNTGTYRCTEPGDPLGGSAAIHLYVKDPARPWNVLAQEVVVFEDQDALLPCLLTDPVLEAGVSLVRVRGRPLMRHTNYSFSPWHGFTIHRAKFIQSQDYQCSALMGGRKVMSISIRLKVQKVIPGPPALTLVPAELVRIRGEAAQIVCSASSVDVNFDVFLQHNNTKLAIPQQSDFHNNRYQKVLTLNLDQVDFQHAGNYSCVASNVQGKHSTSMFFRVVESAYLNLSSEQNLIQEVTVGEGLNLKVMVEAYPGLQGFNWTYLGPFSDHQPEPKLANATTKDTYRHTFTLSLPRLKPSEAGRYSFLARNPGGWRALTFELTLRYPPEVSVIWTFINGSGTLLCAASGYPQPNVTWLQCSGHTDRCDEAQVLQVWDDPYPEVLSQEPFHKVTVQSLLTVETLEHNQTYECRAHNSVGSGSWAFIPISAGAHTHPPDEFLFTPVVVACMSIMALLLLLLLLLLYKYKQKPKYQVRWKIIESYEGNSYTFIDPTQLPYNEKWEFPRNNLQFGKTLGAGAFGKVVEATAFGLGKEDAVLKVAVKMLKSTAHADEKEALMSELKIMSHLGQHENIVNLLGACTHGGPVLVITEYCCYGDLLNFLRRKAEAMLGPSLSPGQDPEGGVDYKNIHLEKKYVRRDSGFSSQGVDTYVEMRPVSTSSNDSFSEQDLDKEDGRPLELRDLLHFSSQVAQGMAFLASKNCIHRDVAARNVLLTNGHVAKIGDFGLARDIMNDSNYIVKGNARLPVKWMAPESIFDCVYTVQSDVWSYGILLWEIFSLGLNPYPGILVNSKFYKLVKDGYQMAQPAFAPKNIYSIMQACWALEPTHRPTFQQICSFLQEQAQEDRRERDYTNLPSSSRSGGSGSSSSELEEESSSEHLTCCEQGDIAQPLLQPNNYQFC
Chain of KIT (P10721 26-976): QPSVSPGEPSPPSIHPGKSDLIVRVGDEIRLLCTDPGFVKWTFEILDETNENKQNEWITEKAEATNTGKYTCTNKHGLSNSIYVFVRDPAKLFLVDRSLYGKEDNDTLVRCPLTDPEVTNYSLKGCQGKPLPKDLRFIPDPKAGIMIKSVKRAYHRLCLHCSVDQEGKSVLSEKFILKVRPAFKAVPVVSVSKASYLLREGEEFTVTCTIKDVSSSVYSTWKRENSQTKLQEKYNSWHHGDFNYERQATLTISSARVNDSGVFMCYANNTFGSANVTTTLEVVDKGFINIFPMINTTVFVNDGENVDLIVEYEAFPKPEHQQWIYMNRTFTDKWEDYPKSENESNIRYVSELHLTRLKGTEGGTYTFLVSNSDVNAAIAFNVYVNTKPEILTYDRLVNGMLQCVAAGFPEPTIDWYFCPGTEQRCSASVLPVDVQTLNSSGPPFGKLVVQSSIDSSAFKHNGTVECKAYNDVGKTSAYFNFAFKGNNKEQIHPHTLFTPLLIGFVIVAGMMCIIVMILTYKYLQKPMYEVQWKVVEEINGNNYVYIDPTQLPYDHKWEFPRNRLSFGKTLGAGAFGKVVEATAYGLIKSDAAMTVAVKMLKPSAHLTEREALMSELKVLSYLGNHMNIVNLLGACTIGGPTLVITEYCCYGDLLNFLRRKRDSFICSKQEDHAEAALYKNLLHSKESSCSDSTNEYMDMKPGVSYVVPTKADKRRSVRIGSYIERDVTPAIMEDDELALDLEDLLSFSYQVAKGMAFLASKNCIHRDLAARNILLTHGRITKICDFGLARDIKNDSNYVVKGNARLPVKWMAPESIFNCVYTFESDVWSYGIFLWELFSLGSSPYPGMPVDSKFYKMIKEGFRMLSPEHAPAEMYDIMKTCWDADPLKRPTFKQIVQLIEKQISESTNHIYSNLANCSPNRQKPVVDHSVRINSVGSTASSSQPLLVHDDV
Chain of PDGFRA (P16234 24-1089): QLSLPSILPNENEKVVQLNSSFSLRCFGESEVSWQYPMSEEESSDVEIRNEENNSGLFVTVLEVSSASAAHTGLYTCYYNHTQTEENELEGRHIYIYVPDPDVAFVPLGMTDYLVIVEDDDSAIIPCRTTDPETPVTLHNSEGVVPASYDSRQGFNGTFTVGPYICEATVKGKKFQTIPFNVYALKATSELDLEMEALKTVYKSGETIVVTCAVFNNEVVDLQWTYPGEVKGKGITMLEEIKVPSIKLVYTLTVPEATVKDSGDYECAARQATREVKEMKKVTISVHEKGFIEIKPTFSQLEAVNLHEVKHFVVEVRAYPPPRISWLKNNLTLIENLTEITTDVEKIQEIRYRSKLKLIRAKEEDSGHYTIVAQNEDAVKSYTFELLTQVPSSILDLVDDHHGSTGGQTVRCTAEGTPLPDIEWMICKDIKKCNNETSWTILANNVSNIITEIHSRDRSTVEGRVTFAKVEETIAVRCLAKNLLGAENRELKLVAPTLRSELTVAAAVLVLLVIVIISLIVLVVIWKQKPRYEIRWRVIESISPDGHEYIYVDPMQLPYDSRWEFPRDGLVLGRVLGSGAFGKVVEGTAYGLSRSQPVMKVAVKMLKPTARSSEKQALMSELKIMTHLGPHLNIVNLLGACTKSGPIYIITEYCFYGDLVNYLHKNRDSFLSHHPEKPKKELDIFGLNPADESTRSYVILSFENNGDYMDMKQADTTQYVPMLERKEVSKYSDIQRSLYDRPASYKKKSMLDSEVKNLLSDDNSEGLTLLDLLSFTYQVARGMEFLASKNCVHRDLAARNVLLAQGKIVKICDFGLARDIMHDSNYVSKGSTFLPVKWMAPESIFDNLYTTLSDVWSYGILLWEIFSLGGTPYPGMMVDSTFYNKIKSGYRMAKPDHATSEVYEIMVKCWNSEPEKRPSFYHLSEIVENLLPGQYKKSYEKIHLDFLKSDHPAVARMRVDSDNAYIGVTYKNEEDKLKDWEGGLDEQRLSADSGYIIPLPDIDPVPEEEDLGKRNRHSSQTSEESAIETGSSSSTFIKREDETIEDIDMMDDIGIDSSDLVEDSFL

| SMILES | pIC50 (CSF-1R) | IC50 [1, 5] | IC50 [1, 6] | IC50 [2] | IC50 [3] | IC50 [4] | pIC50 (PDGFRA) | pIC50 (KIT) |
| --- | --- | --- | --- | --- | --- | --- | --- | --- |
| Cc1nc(NC(=O)N2CCC(C)(C)C2=O)ccc1Oc1ccnc(-c2cnn(C)c2)c1 [Example 1, 3,3-dimethyl-N-(6-methyl-5-((2-(1-methyl-1H-pyrazol-4-yl)pyridin-4-yl)oxy)pyridin-2-yl)-2-oxopyrrolidine-1-carboxamide] | 7.71 | 24.1 nM | 25 nM | 5560 nM | 1060 nM | 2870 nM | 5.85 | 7.11 |
| Cc1nc(NC(=O)N2CCC(C)(C)C2=O)ccc1Oc1ccnc(-c2cnn(C3CC3)c2)c1 [Example 15, N-(5-((2-(1-cyclopropyl-1H-pyrazol-4-yl)pyridin-4-yl)oxy)-6-methylpyridin-2-yl)-3,3-dimethyl-2-oxopyrrolidine-1-carboxamide] | 7.68 | 38.7 nM | 64.4 nM | > 6000 nM | > 1120 nM | > 6000 nM | – | – |
| Cc1nc(NC(=O)N2CCC3(CCCC3)C2=O)ccc1Oc1ccnc(-c2cnn(C)c2)c1 [Example 31, N-(6-methyl-5-((2-(1-methyl-1H-pyrazol-4-yl)pyridin-4-yl)oxy)pyridin-2-yl)-1-oxo-2-azaspiro[4.4]nonane-2-carboxamide] | 8.07 | 19.4 nM | 19.2 nM | 2980 nM | 190 nM | 561 nM | – | – |
| Cc1nc(NC(=O)N2CCC(C)(O)C2=O)ccc1Oc1ccnc(-c2cnn(C)c2)c1 (stereo not drawn) [Example 41, 3-hydroxy-3-methyl-N-(6-methyl-5-((2-(1-methyl-1H-pyrazol-4-yl)pyridin-4-yl)oxy)pyridin-2-yl)-2-oxopyrrolidine-1-carboxamide] | 6.35 | > 2000 nM | > 2000 nM | > 18000 nM | > 18000 nM | > 18000 nM | – | – |
| Cn1cc(-c2cc(Oc3ccc(NC(=O)N4CCC(C)(C)C4=O)nc3)ccn2)cn1 [Example 2, 3,3-dimethyl-N-(5-((2-(1-methyl-1H-pyrazol-4-yl)pyridin-4-yl)oxy)pyridin-2-yl)-2-oxopyrrolidine-1-carboxamide] | 7.84 | 23.1 nM | 26.3 nM | 6000 nM | 158 nM | 18000 nM | 6.36 | 7.22 |
| CCC1(C)CCN(C(=O)Nc2ccc(Oc3ccnc(-c4cnn(C)c4)c3)c(C)n2)C1=O (stereo not drawn) [Example 33, 3-ethyl-3-methyl-N-(6-methyl-5-((2-(1-methyl-1H-pyrazol-4-yl)pyridin-4-yl)oxy)pyridin-2-yl)-2-oxopyrrolidine-1-carboxamide] | 7.70 | 40.3 nM | 41.9 nM | > 6000 nM | 535 nM | > 6000 nM | – | – |
| CCC1(CC)CCN(C(=O)Nc2ccc(Oc3ccnc(-c4cnn(C)c4)c3)c(C)n2)C1=O [Example 34, 3,3-diethyl-N-(6-methyl-5-((2-(1-methyl-1H-pyrazol-4-yl)pyridin-4-yl)oxy)pyridin-2-yl)-2-oxopyrrolidine-1-carboxamide] | 7.29 | 21.5 nM | 21.3 nM | > 2000 nM | 667 nM | 1330 nM | – | – |
| Cc1nc(NC(=O)N2CCC(C)(C)C2=O)ccc1Cc1ccnc(-c2cnn(C)c2)c1 [Example 21, 3,3-dimethyl-N-(6-methyl-5-((2-(1-methyl-1H-pyrazol-4-yl)pyridin-4-yl)methyl)pyridin-2-yl)-2-oxopyrrolidine-1-carboxamide] | 7.22 | 31.2 nM | 45.2 nM | > 2000 nM | 727 nM | > 6000 nM | – | – |
| Cc1nc(NC(=O)N2CCOC(C)(C)C2=O)ccc1Oc1ccnc(-c2cnn(C)c2)c1 [Example 29, 2,2-dimethyl-N-(6-methyl-5-((2-(1-methyl-1H-pyrazol-4-yl)pyridin-4-yl)oxy)pyridin-2-yl)-3-oxomorpholine-4-carboxamide] | 7.28 | 75.1 nM | 76.3 nM | > 18000 nM | > 2000 nM | > 6000 nM | 6.03 | 7.03 |
| Cc1nc(NC(=O)N2CCC(C)(C)C2=O)ccc1Oc1ccnc(-c2cnn(CCO)c2)c1 [Example 10, N-(5-((2-(1-(2-hydroxyethyl)-1H-pyrazol-4-yl)pyridin-4-yl)oxy)-6-methylpyridin-2-yl)-3,3-dimethyl-2-oxopyrrolidine-1-carboxamide] | 7.25 | 140 nM | 104 nM | 18000 nM | 4900 nM | 6000 nM | 4.88 | 6.32 |
| [2H]C([2H])([2H])n1cc(-c2cc(Oc3ccc(NC(=O)N4CCC(C)(C)C4=O)nc3C)ccn2)cn1 [Example 11, 3,3-dimethyl-N-(6-methyl-5-((2-(1-(methyl-d3)-1H-pyrazol-4-yl)pyridin-4-yl)oxy)pyridin-2-yl)-2-oxopyrrolidine-1-carboxamide] | 7.67 | 35.5 nM | 43.5 nM | > 6000 nM | > 1120 nM | > 2000 nM | – | – |
| Cc1nc(NC(=O)N2CCCC(C)(C)C2=O)ccc1Oc1ccnc(-c2cnn(C)c2)c1 [Example 28, 3,3-dimethyl-N-(6-methyl-5-((2-(1-methyl-1H-pyrazol-4-yl)pyridin-4-yl)oxy)pyridin-2-yl)-2-oxopiperidine-1-carboxamide] | 7.62 | 31.9 nM | 35.7 nM | 10000 nM | 940 nM | 9530 nM | 6.97 | 8.07 |
| CCn1cc(-c2cc(Oc3ccc(NC(=O)N4CCC(C)(C)C4=O)nc3C)ccn2)cn1 [Example 6, N-(5-((2-(1-ethyl-1H-pyrazol-4-yl)pyridin-4-yl)oxy)-6-methylpyridin-2-yl)-3,3-dimethyl-2-oxopyrrolidine-1-carboxamide] | 7.59 | 36.6 nM | 42.9 nM | 9000 nM | 1670 nM | 6000 nM | 5.61 | 6.78 |
